Laboratory results taken from patent US10314785B2, “Sterile pharmaceutical compositions” (NORTON HEALTHCARE LTD, priority 2004, dated 2019).
Values after ≈ are worked out from the molar mass of the structure shown.

What was measured:
[1] = suspensions sterilized by a wet steam process; cited from earlier work
[2] = Heat sterilization of beclomethasone dipropionate concentrates: content, impurities, particle size; type: physicochemical; conditions: 121/30, data not shown
Method: Determination of impurity levels and particle size were also determined as outlined above.

[3] = Water solubility of budesonide at sterilizing temperatures; type: physicochemical
Method: A balance is required between the solubility of the glucocorticosteroid and the amount of the glucocorticosteroid used per unit of solvent such that at least 50% of the glucocorticosteroid is suspended in the solvent. For example, for budesonide, at the sterilizing temperatures used herein the water solubility is about 7 mg/ml. Therefore, using 15 mg of budesonide per […] provides 53% of budesonide as a suspension. Preferably at least 60% of the glucocorticosteroid is suspended in the solvent although this value could be at least 70% or at least 80%.

## CCC(=O)OCC(=O)[C@@]1(OC(=O)CC)[C@@H](C)C[C@H]2[C@@H]3CCC4=CC(=O)C=C[C@]4(C)[C@@]3(Cl)[C@@H](O)C[C@@]21C [beclomethasone, beclomethasone dipropionate]
[1]
  decrease in active ingredient content: 8-9%
  increase in degradation products: 10-11%
[2]
  change in beclomethasone content upon heating in the autoclave: no significant change
  change in particle size distribution on autoclaving: no significant change
  increase in impurities upon heating in the autoclave: no significant change in beclomethasone content or increase in impurities

## CCCC1O[C@@H]2C[C@H]3[C@@H]4CCC5=CC(=O)C=C[C@]5(C)[C@H]4[C@@H](O)C[C@]3(C)[C@]2(C(=O)CO)O1 (stereo partly shown) [budesonide]
[3]; using 15 mg of budesonide per 1 mg water
  fraction of budesonide suspended: 53%
[3]; water, at the sterilizing temperatures used herein
  solubility: ~7000 µg/mL (≈ 16.3 mM)
